Results taken from patent US20070292876A1, “METHODS FOR IDENTIFICATION OF COMPOUNDS THAT MIMIC THE SENESCENCE-INDUCING ACTIVITY OF RETINOIC ACID RECEPTOR LIGANDS” (Ordway Research Institute, Inc., priority 2006, published 2007).

Tests used:
Format in all cases: cell-based, human
MCF-7 cells [1] = experiment: Affymetrix U133 Plus 2.0 microarray gene expression profiling: genes (oncogenes) inhibited by RAR ligands; conditions: 24, 48 or 72 hr treatment
Description: (§1) FIG. 3 depicts microarray analysis of changes in gene expression in MCF-7 cells treated with RAR ligands LGD1550 or LG100815, plotted using GeneSpring software. The X axis represents different time points of treatment with RAR ligands (0 point correspond to cells cultured for 3 days with DMSO carrier). […] The groups of genes shown in panels (a) and (b) represent gene ontology (GO) categories, with the exclusion of genes showing raw signal intensity <10 in MCF-7 cells. The groups of genes shown in panels (c) and (d) represent the oncogenes and tumor suppressors listed in Table 1 and Table 2, respectively.
(§2) For the analysis of gene expression, cells treated with the carrier or with RAR ligands LGD1550 or LG100815 were collected after 24, 48 or 72 hr treatment. Total cellular RNA was isolated using Qiagen's RNeasy kit. For gene expression profiling, RNA samples were provided to the Microarray Core Facility at the Genomics Institute of the NYSDOH Wadsworth Center, which carried out biotinylated target preparation (using 2 μg RNA per assay) and hybridization with Affymetrix U133 Plus 2.0 microarrays. Data analysis was carried out using GeneSpring software (Agilent). Gene function analysis was carried out using Pathway Assist (Ariadne Genomics) and PubMed.
Gene Ontology groupings of genes with related biological functions (as provided in the GeneSpring software package) were surveyed for concerted response to RAR ligands. […] Strong downregulation of such genes has been associated with cell cycle arrest induced by chemotherapeutic drugs (Chang et al., 2002). In contrast, inhibition of these genes by RAR ligands was moderate (on average about 2-fold), with almost no genes showing 5-fold or stronger inhibition. On the other hand, we noticed that many of the genes that show the greatest fold inhibition by RAR ligands are known or putative oncogenes. Genes are defined herein as putative oncogenes or tumor suppressors if such genes have been reported in the literature to play a functional role in tumor cell growth, survival, tumorigenesis or metastasis, as determined by targeted inhibition, gene overexpression or protein addition studies.

MCF-7 cells [2] = experiment: Affymetrix U133 Plus 2.0 microarray gene expression profiling: tumor suppressors induced by RAR ligands; conditions: 24, 48 or 72 hr treatment
Description: as §1, §2
As previously described (Dokmanovic et al., 2002), retinoid treatment of MCF-7 cells induces genes that encode growth-inhibitory proteins, both intracellular (EPLIN and UBD) and secreted (IGFBP3 and TGFBI). Through the survey of the present microarray data, additional retinoid-inducible growth-inhibitory genes, induced both by LGD1550 and LG100815, have been identified. These genes, listed in Table 2, provide advantageous reporters for identifying compounds that mimic the senescence-inducing effects of retinoids. The products of these genes include both secreted factors and cell-associated proteins.

MCF-7 cells [3] = experiment: Senescence-associated β-galactosidase (SA-β-gal) positive fraction of MCF-7 cells; conditions: 7-day treatment; same concentrations as for cell growth
Procedure: The bars represent percentages of SA-P-gal+cells after 8 days of treatment with the indicated compounds (in triplicate). The compounds were used at the same concentrations as in FIG. 1.
(§3) MCF-7 cells were plated at 5×10^5 per P100, and exposed on the next day to DMSO carrier, RA (100 nM), pan-RAR-specific ligands, LGD1550 (100 nM) and LG100815 (10 μM), pan-RXR specific agonist LGD1268, pan-RXR-specific antagonist LG101208, or drug-free DMSO carrier (control). The latter four compounds were provided by Ligand Pharmaceuticals, Inc. The effects of RAR ligands on the growth of MCF-7 cells were determined, as measured by the cell number after 7 days exposure to the compounds (FIG. 1) and on the fraction of cells expressing the senescence-associated β-galactosidase activity (SA-β-gal), a marker of senescence, after 7-day treatment with the compounds (FIG. 2).

MCF-7 cells [4] = experiment: Effect on MCF-7 cell growth (cell number after 7 days exposure); conditions: LGD1550 100 nM, LG100815 10 μM, LGD1268 100 nM, LG101208 10 μM
Procedure: The bars represent cell number after 7 days of culture with the addition of DMSO (control), 100 nM RA, 100 nM RAR agonist LGD1550, 100 nM RXR agonist LGD1268, 10 μM RAR antagonist LG100815, and 10 μM RXR antagonist LG101208. Experiments were done in triplicate, and the results are expressed relative to the average of the control.
as §3

Q: What does the source list for `CC(/C=C/C=C(\C)c1cc(C(C)(C)C)cc(C(C)(C)C)c1)=C\C(=O)O` [LGD1550]?
A: Max fold inhibition of G6PD (MCF-7 cells [1]; probe 202275_at): 2.2 fold; Max fold inhibition of CCNA2 (MCF-7 cells [1]; probe 203418_at): 3.3 fold; Max fold inhibition of PTTG1 (MCF-7 cells [1]; probe 203554_x_at): 2.7 fold; Max fold inhibition of PBX3 (MCF-7 cells [1]; probe 204082_at): 3.4 fold; Max fold inhibition of FGFR3 (MCF-7 cells [1]; probe 204379_s_at): 5.0 fold; Max fold inhibition of TFF3 (MCF-7 cells [1]; probe 204623_at, secreted): 4.0 fold; Max fold inhibition of IRS1 (MCF-7 cells [1]; probe 204686_at): 2.6 fold; Max fold inhibition of MYB (MCF-7 cells [1]; probe 204798_at): 9.9 fold; Max fold inhibition of C4.4A (MCF-7 cells [1]; probe 204952_at): 8.1 fold; Max fold inhibition of ENTPD5 (MCF-7 cells [1]; probe 205757_at): 3.4 fold; Max fold inhibition of GREB1 (MCF-7 cells [1]; probe 205862_at): 4.8 fold; Max fold inhibition of HMMR (MCF-7 cells [1]; probe 207165_at): 2.9 fold; Max fold inhibition of CCND1 (MCF-7 cells [1]; probe 208711_s_at): 2.1 fold; Max fold inhibition of BMP7 (MCF-7 cells [1]; probe 209591_s_at, secreted): 1.8 fold; Max fold inhibition of CXCL12 (MCF-7 cells [1]; probe 209687_at, secreted): 5.7 fold; Max fold inhibition of MSX2 (MCF-7 cells [1]; probe 210319_x_at): 4.0 fold; Max fold inhibition of RET (MCF-7 cells [1]; probe 211421_s_at): 8.5 fold; Max fold inhibition of PIK3R1 (MCF-7 cells [1]; probe 212240_s_at): 2.0 fold; Max fold inhibition of MYBL1 (MCF-7 cells [1]; probe 213906_at): 2.6 fold; Max fold inhibition of MAFB (MCF-7 cells [1]; probe 218559_s_at): 7.5 fold; Max fold inhibition of VAV3 (MCF-7 cells [1]; probe 218807_at): 14.5 fold; Max fold inhibition of PDLIM2 (MCF-7 cells [1]; probe 219165_at): 4.0 fold; Max fold inhibition of ECT2 (MCF-7 cells [1]; probe 219787_s_at): 2.8 fold; Max fold inhibition of SPDEF (MCF-7 cells [1]; probe 220192_x_at): 14.2 fold; Max fold inhibition of AMIGO2 (MCF-7 cells [1]; probe 222108_at): 11.7 fold; Max fold inhibition of MALAT1 (MCF-7 cells [1]; probe 224559_at): 2.5 fold; Max fold induction of NBL1 (MCF-7 cells [2]; probe 37005_at): 4.0 fold; Max fold induction of GSN (MCF-7 cells [2]; probe 200696_s_at): 1.7 fold; Max fold induction of BTG1 (MCF-7 cells [2]; probe 200921_s_at): 2.5 fold; Max fold induction of PRSS11 (MCF-7 cells [2]; probe 201185_at, secreted): 1.9 fold; Max fold induction of BTG2 (MCF-7 cells [2]; probe 201236_s_at): 8.3 fold; Max fold induction of TGFBI (MCF-7 cells [2]; probe 201506_at, secreted): 53.0 fold; Max fold induction of MARCKS (MCF-7 cells [2]; probe 201669_s_at): 9.3 fold; Max fold induction of PRSS8 (MCF-7 cells [2]; probe 202525_at, secreted): 2.4 fold; Max fold induction of IRF1 (MCF-7 cells [2]; probe 202531_at): 5.3 fold; Max fold induction of FBLN5 (MCF-7 cells [2]; probe 203088_at, secreted): 10.1 fold; Max fold induction of IGFBP6 (MCF-7 cells [2]; probe 203851_at, secreted): 2.6 fold; Max fold induction of GADD45G (MCF-7 cells [2]; probe 204121_at): 3.8 fold; Max fold induction of UBD (MCF-7 cells [2]; probe 205890_s_at): 35.9 fold; Max fold induction of BATF (MCF-7 cells [2]; probe 205965_at): 2.7 fold; Max fold induction of CEACAM1 (MCF-7 cells [2]; probe 206576_s_at): 16.2 fold; Max fold induction of PPARG (MCF-7 cells [2]; probe 208510_s_at): 15.9 fold; Max fold induction of KLF6 (MCF-7 cells [2]; probe 208961_s_at): 2.2 fold; Max fold induction of DDIT3 (MCF-7 cells [2]; probe 209383_at): 2.5 fold; Max fold induction of NKX3-1 (MCF-7 cells [2]; probe 209706_at): 7.5 fold; Max fold induction of IGFBP3 (MCF-7 cells [2]; probe 210095_s_at, secreted): 32.2 fold; Max fold induction of SULF1 (MCF-7 cells [2]; probe 212354_at, secreted): 2.9 fold; Max fold induction of PDCD4 (MCF-7 cells [2]; probe 212593_s_at): 1.7 fold; Max fold induction of EI24 (MCF-7 cells [2]; probe 216396_s_at): 2.2 fold; Max fold induction of EPLIN (MCF-7 cells [2]; probe 217892_s_at): 18.8 fold; Max fold induction of PHLDA1 (MCF-7 cells [2]; probe 217996_at): 3.7 fold; Max fold induction of GDF15 (MCF-7 cells [2]; probe 221577_x_at, secreted): 7.2 fold; Max fold induction of FOXO3A (MCF-7 cells [2]; probe 224891_at): 2.3 fold; Max fold induction of HIPK2 (MCF-7 cells [2]; probe 225368_at): 3.7 fold; Max fold induction of TGFB2 (MCF-7 cells [2]; probe 228121_at, secreted): 2.0 fold; Max fold induction of CDKN2B (MCF-7 cells [2]; probe 236313_at): 3.2 fold; Max fold induction of VHL (MCF-7 cells [2]; probe 1559227_s_at): 2.0 fold; fraction of cells expressing SA-β-gal (senescent phenotype) (MCF-7 cells [3]): induced SA-β-gal to an extent similar to that of RA; MCF-7 cell growth (cell number) (MCF-7 cells [4]): inhibited the cell growth
